In data set [1] the test system is enterovirus-71 (Tainan/4643/98 strain). Description: organism not typed. Type of data set: cell-based.
A further data set concerns MERS-CoV (EMC strain). Description: microbe, parasite or virus in culture. Type of data set: cell-based.
Data set [2] can be described thus: in vitro. Particulars: African green monkey.
Data set [3] has as its system yellow fever virus (YFV 17D strain). Briefly: microbe, parasite or virus in culture. Type of data set: cell-based.
Data set [4] is described as follows: in vitro. The note with it: human.
The test system of data set [5] is dengue virus 2 (New Guinea C strain). Description: microbe, parasite or virus in culture. Format: cell-based.
Data set [6] in a line: in vitro. Particulars: dog.
Another data set has as its system Vero 76 cells. The note with it: read-out: MERS-CoV CC50 Vero 76; Neutral Red; MERS-CoV screen.
Data set [7] relates to tacaribe virus (TRVL11573 strain). Description: microbe, parasite or virus in culture. Format: cell-based. Particulars: for EC50: read-out: Tacaribe virus EC50 TRVL 11573 strain.
The test system of data set [8] is measles virus (CC strain). Briefly: microbe, parasite or virus in culture. Type of data set: cell-based.
In data set [9] the test system is chikungunya virus (S27 strain). Briefly: microbe, parasite or virus in culture. Format: cell-based.
Data set [10] has as its system influenza A (H1N1) virus (California/07/2009 strain). Description: microbe, parasite or virus in culture. Type of data set: cell-based.
The nature of data set [11]: in vitro. Particulars: African green monkey. This is another data set of the same source.
The test system of the next data set is Vero cells. The note with it: African green monkey.
Data set [12] has as its system human norovirus genogroup I NoV (Norwalk virus replicon) in HG23 cells. Description: Human norovirus antiviral assay, qRT PCR in HG23 NoV replicon cells. Type of data set: cell-based. The note with it: for EC50: Norwalk virus, HG23 Nov replicon cells, qRT PCR intracellular RNA, read-out: EC50 human norovirus.
Data set [13] can be described thus: Cytotoxicity in the human norovirus replicon assay (HG23 cells). Particulars: human, HG23 Nov replicon cells.
Setting [14] is: Vero 76, read-out: EC50 enterovirus-71.
The mark [15] stands for this setting: Middle East respiratory syndrome-related coronavirus, Vero 76, read-out: MERS-CoV EC50 EMC strain.
Where [16] appears, read: read-out: MERS-CoV EC50 EMC strain.
The mark [17] stands for this setting: Yellow fever virus, Huh-7, read-out: Yellow fever virus EC50 YFV 17D strain.
[18] abbreviates: read-out: Yellow fever virus EC50 YFV 17D strain.
[19] abbreviates: Dengue virus, Huh-7, read-out: EC50 dengue virus 2.
Setting [20] is: Mammarenavirus tacaribeense, Vero.
The mark [21] stands for this setting: Measles morbillivirus, Vero 76, read-out: Measles EC50 CC strain.
The mark [22] stands for this setting: read-out: Measles EC50 CC strain.
Where [23] appears, read: read-out: Yellow fever virus CC50 Huh7, Neutral Red, YFV screen.
[24] abbreviates: Chikungunya virus, Vero 76, read-out: EC50 chikungunya virus.
Setting [25] is: Influenza A virus, H1N1, MDCK, read-out: EC50 California/07/2009 strain.

Like-named read-outs stand apart in the source and are kept apart here. Marks after values point to notes of the source that are not given here.

The results in this text go back to patent publication US20250144125A1 (priority 2021, published 2025).

For `CCc1ncnc2c1c(I)cn2[C@@H]1O[C@H](CO)[C@@H](O)[C@H]1O` [3.1o, 6-Ethyl-7-iodo-9-β-D-ribofuranosyl-7-deazapurine], the EC50 in [1] (setting [14]) is over 100 µM; in the data set with MERS-CoV (EMC strain) (setting [15]), over 100 µM; in the data set with MERS-CoV (EMC strain) (setting [16]), 68 µM; in [3] (setting [17]), over 100 µM; in data set [3] (setting [18]), over 85 µM; in data set [5] (setting [19]), over 68 µM. Besides, the EC50 in [5] (read-out: EC50 dengue virus 2) is over 64 µM; in [7] (setting [20]), over 100 µM; in data set [8] (setting [21]), 100 µM; in data set [8] (setting [22]), over 100 µM; in data set [9] (setting [24]) it was over 100 µM; in data set [10] (setting [25]) it was over 100 µM. Further, the CC50 was over 100 µM in “in vitro [2]” (MERS-CoV CC50 Vero 76); 68 µM in the data set “in vitro [4]” (CC50); over 100 µM in the data set “in vitro [4]” (Yellow fever virus CC50 Huh7); over 100 µM in “in vitro [6]” (CC50 MDCK); over 100 µM in the data set with Vero 76 cells; 64 µM with Huh7 cells (human). Further, in the data set on Huh7 cells (setting [23]), the CC50 was 85 µM.
Regarding `OC[C@H]1O[C@@H](n2ccc3c(C#Cc4cccc(F)c4)ncnc32)[C@H](O)[C@@H]1O` [3.1i, 6-((3-Fluorophenyl)ethynyl)-9-β-D-ribofuranosyl-7-deazapurine], the EC50 was over 32 µM in data set [1] (setting [14]); over 28 µM in [1] (read-out: EC50 enterovirus-71); over 32 µM in the data set on MERS-CoV (EMC strain) (setting [15]); 1.2 µM in [3] (setting [17]); 0.85 µM in data set [3] (setting [18]); 2.6 µM in data set [5] (setting [19]). Besides, the EC50 in data set [5] (read-out: EC50 dengue virus 2) is 2.7 µM; in data set [7] (setting [20]) it was over 12 µM; in data set [7], over 11 µM; in data set [8] (setting [21]), 3.2 µM; in data set [8] (setting [22]), 3.6 µM; in [9] (setting [24]), over 32 µM. Further, the EC50 in data set [9] (read-out: EC50 chikungunya virus) was over 30 µM. Also, the CC50 in the data set “in vitro [2]” (MERS-CoV CC50 Vero 76) is 32 µM; in the data set “in vitro [2]” (Measles CC50 Vero 76) it was 24 µM; in the data set “in vitro [11]” (Tacaribe virus CC50 Vero), 12 µM; in “in vitro [4]” (CC50), 24 µM; in the data set “in vitro [4]” (Yellow fever virus CC50 Huh7), 32 µM; in the data set with Huh7 cells (human) it was 22 µM. The CC50 in the data set on Huh7 cells (setting [23]) stood at 30 µM; with Vero cells, 11 µM.
On to `Nc1ccn([C@@H]2O[C@H](CO)[C@@H](O)[C@H]2F)c(=O)n1` [2′-Fluoro-2′-deoxycytidine, 2′-fluoro-2′-deoxycytidine, reference compound], for which the CC50 in the data set “in vitro [2]” (Measles CC50 Vero 76) was over 100 µg/mL. Also, the “Measles EC50 CC strain” value in data set [8] is on record as 0.95^d μg/mL. Moreover, in data set [8] (setting [21]), the EC50 was found to be 1 µg/mL.
As for `C=Cc1cn([C@@H]2O[C@H](CO)[C@@H](O)[C@H]2O)c2ncnc(CC)c12` [3.1m, 6-Ethyl-7-vinyl-9-β-D-ribofuranosyl-7-deazapurine], the EC50 in data set [1] (setting [14]) was over 100 µM; in data set [12] it was 3.35 µM; with MERS-CoV (EMC strain) (setting [15]), 22 µM; with MERS-CoV (EMC strain) (setting [16]) it was 14 µM; in data set [5] (setting [19]), 32 µM; in [5] (read-out: EC50 dengue virus 2) it was over 19 µM. The EC50 in data set [7] (setting [20]) was over 100 µM; in data set [8] (setting [21]), 25 µM; in data set [8] (setting [22]), 43 µM; in data set [9] (setting [24]) it was over 100 µM; in data set [10] (setting [25]), over 100 µM. Also, the “activity against human norovirus in words” value in data set [12] is “no promising activity”. In addition, the CC50 in “in vitro [2]” (MERS-CoV CC50 Vero 76) is over 100 µM; in the data set “in vitro [6]” (CC50 MDCK), over 100 µM; in the data set with Vero 76 cells it was over 100 µM; in the data set on Huh7 cells (setting [23]), 20 µM; in the data set with Huh7 cells (read-out: Yellow fever virus CC50 Huh7, Visual, YFV screen), 4.6 µM. Besides, the CC50 at 3 days in [13] turned out to be 14.6 µM.
For the compound `C#Cc1cn([C@@H]2O[C@H](CO)[C@@H](O)[C@H]2O)c2ncnc(CC)c12` [3.1l, 6-Ethyl-7-ethynyl-9-β-D-ribofuranosyl-7-deazapurine], the EC50 is over 100 µM in data set [1] (setting [14]); 0.393 µM in [12]; over 100 µM in data set [3] (setting [17]); over 92 µM in data set [3] (setting [18]); over 100 µM in data set [5] (setting [19]); over 51 µM in [5] (read-out: EC50 dengue virus 2). Further, the EC50 in [7] (setting [20]) is over 100 µM; in [8] (setting [21]) it was 72 µM; in data set [8] (setting [22]) it was over 100 µM; in data set [9] (setting [24]), over 100 µM; in data set [10] (setting [25]) it was 0.34 µM; in data set [10] (read-out: EC50 California/07/2009 strain), 0.52 µM. Moreover, in data set [12], the “activity against human norovirus in words” value is “no promising activity”. The CC50 was over 100 µM in “in vitro [2]” (MERS-CoV CC50 Vero 76); over 100 µM in the data set “in vitro [4]” (Yellow fever virus CC50 Huh7); over 100 µM in the data set “in vitro [6]” (CC50 MDCK); over 100 µM in the data set with Vero 76 cells; 51 µM with Huh7 cells (human); 92 µM in the data set on Huh7 cells (setting [23]). The CC50 at 3 days in [13] was found to be 0.455 µM.
As to `CCc1ncnc2c1c(Cl)cn2[C@@H]1O[C@H](CO)[C@@H](O)[C@H]1O` [3.1p, 6-Ethyl-7-chloro-9-β-D-ribofuranosyl-7-deazapurine], the EC50 in data set [1] (setting [14]) was over 100 µM; in the data set on MERS-CoV (EMC strain) (setting [15]) it was 100 µM; with MERS-CoV (EMC strain) (setting [16]), over 100 µM; in data set [3] (setting [17]), over 100 µM; in data set [5] (setting [19]) it was 32 µM; in [5] (read-out: EC50 dengue virus 2), over 38 µM. Moreover, the EC50 in data set [7] (setting [20]) was 100 µM; in data set [7] it was over 100 µM; in [8] (setting [21]), 100 µM; in [8] (setting [22]), over 100 µM; in data set [9] (setting [24]), over 100 µM; in data set [10] (setting [25]), over 100 µM. Further, the CC50 in “in vitro [2]” (MERS-CoV CC50 Vero 76) is over 100 µM; in “in vitro [4]” (CC50), 68 µM; in “in vitro [4]” (Yellow fever virus CC50 Huh7), over 100 µM; in “in vitro [6]” (CC50 MDCK), over 100 µM; in the data set on Vero 76 cells, over 100 µM; in the data set on Huh7 cells (human), 38 µM. For the same compound, the CC50 in the data set with Huh7 cells (setting [23]) is over 100 µM.
On to `C[C@@]1(O)[C@H](O)[C@@H](CO)O[C@H]1n1ccc(N)nc1=O` [2′C Methyl Cytidine, 2′-C-Methylcytidine, reference compound], for which, in data set [12], the EC50 was 1.57 µM. The compound also returned a CC50 at 3 days in data set [13] of over 25 µM.
In the case of `CCc1ncnc2c1c(Br)cn2[C@@H]1O[C@H](CO)[C@@H](O)[C@H]1O` [3.1q, 6-Ethyl-7-bromo-9-β-D-ribofuranosyl-7-deazapurine], the EC50 is over 100 µM in data set [1] (setting [14]); over 100 µM in the data set on MERS-CoV (EMC strain) (setting [15]); over 100 µM in data set [3] (setting [17]); over 68 µM in data set [5] (setting [19]); over 47 µM in [5] (read-out: EC50 dengue virus 2); over 100 µM in data set [7] (setting [20]). Moreover, the EC50 in data set [8] (setting [21]) and in data set [10] (setting [25]) was over 100 µM throughout. The CC50 was over 100 µM in “in vitro [2]” (MERS-CoV CC50 Vero 76); 68 µM in the data set “in vitro [4]” (CC50); over 100 µM in “in vitro [4]” (Yellow fever virus CC50 Huh7); over 100 µM in “in vitro [6]” (CC50 MDCK); over 100 µM in the data set with Vero 76 cells; 47 µM with Huh7 cells (human). Also, the CC50 in the data set with Huh7 cells (setting [23]) is over 100 µM.
Take `NC(=O)c1ncn([C@@H]2O[C@H](CO)[C@@H](O)[C@H]2O)n1` [Ribavirin, ribavirin, reference compound]: the CC50 was over 2950 µM in the data set “in vitro [11]” (CC50); over 1000 µg/mL in “in vitro [11]” (Tacaribe virus CC50 Vero); over 4100 µM in the data set “in vitro [6]” (CC50); over 1000 µg/mL in the data set “in vitro [6]” (CC50 MDCK); over 3600 µM in the data set with Vero cells. In data set [7], the “Tacaribe virus EC50 TRVL 11573 strain” value is given as 7.8^d μg/mL. In addition, the EC50 in [7] (setting [20]) was determined as 9.2 µg/mL; in data set [10] (setting [25]), 2.2 µg/mL; in [10] (Influenza A virus, H1N1, MDCK, read-out: EC50 Influenza A (H1N1)), 10.2 µM. Besides, the “EC50 California/07/2009 strain” value in data set [10] was 2.4^d μg/mL. For the same compound, the “Tacaribe virus CC50 Vero” value with Vero cells is recorded as 970^d μg/mL.
